The values below come from US20210267939A1, “COMPOSITIONS AND METHODS FOR TREATING NAFLD/NASH AND RELATED DISEASE PHENOTYPES” (priority 2018, published 2021).

For one assay, the system named is Zucker fatty rats. The experiment in a line: Tissue acylcarnitine profiling in treated Zucker fatty rats. Particulars: ZFR, BT2 20 mg/kg i.p. daily for one week, vs vehicle. The class given is in vivo. The protocol:
Individually housed, male 12 week-old Zucker fatty rats (ZFR, Charles River Laboratories) maintained on a custom control low fat (LF) diet (A11072001, Research Diets) were used for the BDK inhibition and PPM1K overexpression studies. For the BDK inhibition study, ZFR were administered the small molecule BDK inhibitor 3,6-dichlorobenzo[b]thiophene-2-carboxylic acid (BT2, Sigma) daily at a dose of 20 mg/kg dissolved in 200 ul of sterile dimethylsulfoxide by i.p. injection for 7 days. The control group was administered an equal volume of vehicle each day. On day 6, following an overnight fast, ZFR were subjected to a 1 g/kg i.p. glucose tolerance test (GTT) precisely 1 hr after administration of BT2 (20 mg/kg i.p.) or vehicle. The glucose tolerance test was performed as described (White, et al., 2016). Following the GTT, rats were returned to their normal cages and provided free access to food and water. Indirect calorimetry was performed in a second cohort of BT2 treated rats on day 6 of BT2 administration. Here ad-libitum fed rats were injected with BT2 (20 mg/kg i.p.) or vehicle immediately prior to being placed in an eight-chamber Oxymax system (Columbus Instruments) for seven hours. During their time in the metabolic cages all rats had free access to food and water. […]
Metabolite profiling: Amino acids were measured in plasma and liver samples, and acylcarnitines in liver samples. […]

Assay [1] relates to site-specific phosphorylation changes in liver samples. The experiment in a line: Phospho-proteomics of liver from treated Zucker fatty rats. The note with it: BT2 vs vehicle ZFR. It is filed as in vivo. The method, then: Phosphoproteomics: Large-scale measurements of phosphorylation changes in response to BT2 and PPM1K were performed. Briefly, protein from livers of ZFR treated with BT2 or DMSO, or with Ad-CMV-PPM1K or Ad-CMV-GFP, were solubilized, digested with LysC and trypsin, labeled with TMT-6plex reagents, and mixed in batches of six to enable two direct comparisons: 1) BT2 vs. DMSO (n=3), 2) PPM1K vs. GFP (n=3). Phosphopeptides were enriched from the majority of each mixture using immobilized metal affinity chromatography (IMAC), and a small portion of the input material was retained for assessment of relative protein abundance. Both phosphopeptide and input fractions were subjected to nanoLC-MS/MS using a nano-Acquity UPLC system (Waters) coupled to a Q Exactive Plus Hybrid Quadrupole-Orbitrap mass spectrometer (Thermo Fischer Scientific). Raw LC-MS/MS data were processed in Proteome Discoverer v2.1 (PD2.1, Thermo Fisher Scientific) and subsequent statistical analysis was performed in Microsoft EXCEL. […] (PD2.2, Thermo Fisher Scientific). Phosphosite motif analysis and logo generation was performed in PhosphoSitePlus® by submitting pre-aligned 15 amino acid sequences for all modulated phosphopeptides from each study into the motif and logo analysis tools (Hornbeck et al., 2015).
Tissue lysis and protein digestion for proteomics: Approximately 50 mg of pulverized liver tissue power from each rat (3 BT2- and 3 DMSO-treated animals; 3 PPM1K- and 3 GFP-overexpressing animals) was re-suspended in 400 μL of ice-cold 8M Urea Lysis Buffer (8 M urea in 50 mM Tris, pH 8.0, 40 mM NaCl, 2 mM MgCl2, 1 mM Na3VO4, 10 mM Na4P2O7, 50 mM NaF, supplemented with protease inhibitor (1× cOmplete mini EDTA-free) and phosphatase inhibitor (1× PhosStop) tablets). […] Protein concentration was determined by BCA, and equal amounts of protein (500 μg, adjusted to 2.5 mg/mL with Urea Lysis Buffer) from each sample was reduced with 5 mM DTT at 37° C. for 30 min, cooled to RT, alkylated with 15 mM iodoacetamide for 30 min in the dark and unreacted iodoacetamide quenched by the addition of DTT up to 15 mM. […]

As for `O=C(O)c1sc2cc(Cl)ccc2c1Cl` [BT2, 3,6-dichlorobenzo[b]thiophene-2-carboxylic acid], in the assay on Zucker fatty rats, the “even chain acyl-carnitines in liver” value is “increases” and the “even chain acyl-carnitines in skeletal muscle” value is “but not in skeletal muscle”. In assay [1], the “phosphorylation of serine 25, serine 29 and serine79 of acetyl-coA carboxylase 1 (ACC1), phospho-proteomics” value is reported as “less phosphorylated”; the “phosphosite serine 454 of ATP-citrate lyase (ACL), phospho-proteomics” value was “significantly downregulated”. In addition, in assay [1] (p=0.054), the “Log2 fold change in phosphorylation of serine 293 (serine 333) of BCKDH e1a, phospho-proteomics” value is −0.68.
